The source of these data is patent US20210032345A1, “ANTI-PD-L1 ANTIBODIES, COMPOSITIONS AND ARTICLES OF MANUFACTURE” (Genentech, Inc., priority 2008, published 2021).

This assay concerns the target PD-L1. In words: FACS binding, rat. Particulars: half-maximal binding. As to the method: All samples were run on a […] FACSCalibur and Mean Fluorescence Intensity of PD-L1 binding data as a function of anti-PD-L1 antibody concentration was analyzed using Tree Star, Inc. FlowJo® software; EC50, values (Ab concentration associated with half-maximal binding) were calculated using Kaleidagraph. In addition, equilibrium binding studies were performed to define accurate affinities (Kds) for YW24355570 binding to human and mouse PD-L1 expressed on 293 cells (Example 3B).
On the technique in general: A flow cytometer gives signals particle by particle.

Take “YW243.55.S70: affinity-matured phage anti-PD-L1 antibody derived from YW243.55, selected as the primary candidate; full length IgG1”: a half-maximal response (EC50) required 0.8 nM.
